# Reference: ChEMBL document CHEMBL3877316, “Synthesis of pharmacologically important naphthoquinones and anticancer activity of 2-benzyllawsone through DNA topoisomerase-II inhibition” (Bioorg Med Chem, 2017)
# Activity calls are given as the source filed them. The calls are words filed in the database; no cut-off is given here.
# Legend:
# Mus musculus [1] = assay: Acute toxicity in Swiss albino mouse assessed as serum protein level at 300 mg/kg, po qd administered as single dose for 7 days (reference value: 2.91 +/- 0.31 mg/ml); assay type: organism-based; conditions: in vivo, 168 h
# Mus musculus [2] = assay: Acute toxicity in Swiss albino mouse assessed as serum albumin level at 50 mg/kg, po qd administered as single dose for 7 days (reference value: 2.49 +/- 0.17 g/dl); assay type: organism-based; conditions: in vivo, 168 h
# Mus musculus [3] = assay: Acute toxicity in Swiss albino mouse assessed as serum ALP level at 5 mg/kg, po qd administered as single dose for 7 days (reference value: 292.13 +/- 40.29 U/L); assay type: organism-based; conditions: in vivo, 168 h
# Mus musculus [4] = assay: Acute toxicity in Swiss albino mouse assessed as serum protein level at 1000 mg/kg, po qd administered as single dose for 7 days (reference value: 2.91 +/- 0.31 mg/ml); assay type: organism-based; conditions: in vivo, 168 h
# FaDu = assay: Induction of apoptosis in human FADU cells assessed as increase in PARP cleavage at 5 to 10 uM by Western blot method; assay type: functional, cell-based
# Mus musculus [5] = assay: Acute toxicity in Swiss albino mouse assessed as serum cholesterol level at 50 mg/kg, po qd administered as single dose for 7 days (reference value: 68.37 +/- 4.42 mg/dl); assay type: organism-based; conditions: in vivo, 168 h
# Mus musculus [6] = assay: Acute toxicity in Swiss albino mouse assessed as changes in relative weight of brain up to 1000 mg/kg, po qd administered as single dose for 7 days; assay type: organism-based; conditions: in vivo, 168 h
smiles,measurement,setting,value
O=C1C=C(OCc2ccccc2)C(=O)c2ccccc21,Activity,Mus musculus [1],2.43 mg/mL
same,Activity,Mus musculus [2],2.7 g/dL
same,Activity,Mus musculus [3],307.74 U/L
same,Activity,Mus musculus [4],2.95 mg/mL
same,Activity,FaDu,Active
same,Activity,Mus musculus [5],65.13 mg/dL
same,Activity,Mus musculus [6],Non-Toxic
